Measurements reported in PMC5378956, “Inhibition of delta-secretase improves cognitive functions in mouse models of Alzheimer's disease” (Nature Communications, 2017).

Tests used:
δ-secretase = biological target: T1, δ-secretase (Homo sapiens, UniProt Q99538); assay: DTT and L-cysteine reversibility of δ-secretase inhibition; type: biochemical; conditions: 10 mM DTT or L-cysteine, inhibitor at its IC50
T1 construct: tested with purified active δ-secretase, IC50 values for the top 8 candidates were calculated; purchased Sino Biological (Beijing, China)
T1 sequence (Q99538 18-323 limits assumed): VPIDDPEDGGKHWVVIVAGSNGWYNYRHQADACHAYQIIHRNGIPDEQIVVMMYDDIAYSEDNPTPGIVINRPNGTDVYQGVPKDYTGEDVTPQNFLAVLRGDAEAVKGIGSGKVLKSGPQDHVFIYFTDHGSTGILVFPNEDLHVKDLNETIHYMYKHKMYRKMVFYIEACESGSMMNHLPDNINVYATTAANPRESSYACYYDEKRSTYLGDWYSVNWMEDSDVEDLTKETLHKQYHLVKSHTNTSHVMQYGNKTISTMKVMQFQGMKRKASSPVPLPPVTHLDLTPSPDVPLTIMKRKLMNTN

tau P301S mice = assay: Chronic toxicity after 3 months oral gavage; type: in vivo, mouse
Text: […]. […] […].

[1] = Single-dose pharmacokinetics, IV and oral; conditions: for serum concentration: all three animals
Text: Two months old CD-1 male mice were orally
serum was collected at indicated time points with each group of 3 mice (mean ± s.d.).

[2] = Serum and brain level after chronic oral dosing; conditions: tau P301S, mouse, in vivo, oral 10 mg kg-1d-1, 3 months, 1 hour after last dose
[3] = system: δ-secretase-mediated truncation of tau
Protocol: A half medium was changed to fresh Neurobasal/B27 every 4 days. The neurons were maintained for 13 days in vitro (DIV). Compounds were pre-incubated with primary culture neurons for 30 min. […] The neuronal lysates were prepared for δ-secretase assay.

[4] = male, CD-1, mouse, in vivo, iv, 2 mg kg-1
[5] = male, CD-1, mouse, in vivo, po, 10 mg kg-1
[6] = male, CD-1, mouse, serum, iv, 2 mg/kg
[7] = male, CD-1, mouse, serum, po, 10 mg/kg

## Cn1c(=O)[nH]c(=O)c2c1nc(S)n2CC(O)COc1ccc(Cl)cc1 (stereo not shown) [compound 38]
δ-secretase
  recovery of δ-secretase activity on addition of reducing agents: regained a substantial amount of activity

## Nc1ccc(N2CCOCC2)c2nonc12 [compound 11, 7-(morpholin-4-yl)-2,1,3-benzoxadiazol-4-amine]
Tau P301S mice; 10 mg kg−1 d−1, 3 months
  complete blood count, renal and liver function tests overall: all parameters were comparable with the vehicle-treated mice
  hematoxylin and eosin staining of major organs: no major differences between vehicle-treated and drug-treated animals
  systemic toxicity: does not exhibit systemic toxicity
  weight of major organs (heart, liver, spleen, brain, kidney): not changed
Tau P301S mice; 10 mg kg−1 d−1 oral gavage, 3 months
  body weight: no significant change in body weight
Tau P301S mice; 10 mg kg−1 d−1 oral, 3 months
  ALB: 3.57 ± 0.06 g/dL
  ALP: 35.25 ± 28.48 U L-1
  ALT: 64.25 ± 34.60 U L-1
  BUN: 26.75 ± 3.30 mg/dL
  Hemoglobin: 12.7 ± 0.94 g/dL
  MCH: 17.53 ± 3.42 pg
  MCHC: 40.8 ± 5.07%
  Red blood cell: 7.38 ± 1.15 X1012 l-1
  TBIL: 0.15 ± 0.17 mg/dL
  White blood cell: 1.37 ± 0.08 X109 l-1
  platelet: 491.26 ± 69.8 X109 l-1
[1]; IV 2 mg kg-1, 8.00 h
  serum concentration: BLQ
[1]; IV 2 mg kg-1, 24.00 h
  serum concentration: BLQ
[1]; [4]
  concentration at 0.08 h: 230 ng/mL
  concentration at 0.5 h: 13.3 ng/mL
  concentration at 1 h: 3.5 ng/mL
  concentration at 2 h: 3.8 ng/mL
  concentration at 4 h: 3.1 ng/mL
[1]; [5]
  concentration at 0.5 h: 81.1 ng/mL
  concentration at 1 h: 27.2 ng/mL
  concentration at 2 h: 13.3 ng/mL
  concentration at 4 h: 11.6 ng/mL
  concentration at 8 h: 3.8 ng/mL
[1]; [6]
  AUC(0-inf): 61.2 ng·h/mL
  AUC(0-t): 61.1 ng·h/mL
  Cmax: 230 ng/mL
  MRT last: 18 min
  Vd: 10.8 L/kg
  clearance: 554 mL/min/kg
  half-life: 13.2 min
[1]; male, CD-1, mouse, serum, oral, 10 mg kg-1, F (oral bioavailability), mean, oral 10 mg kg-1 vs IV 2 mg kg-1
  bioavailability: 69%
[1]; [7]
  AUC(0-inf): 223 ng·h/mL
  AUC(0-t): 211 ng·h/mL
  CL/F: 824 mL/min/kg
  Cmax: 447 ng/mL
  MRT last: 69 min
  Tmax: 15 min
  Vd/F: 134 L/kg
  half-life: 139 min
[1]; oral 10 mg kg-1, 24.00 h
  serum concentration: BLQ
[1]; oral 10 mg kg-1 vs IV 2 mg kg-1
  F (oral bioavailability), mean: ~70%
[2]; 10 mg kg-1d-1, Compound #11 in the serum, Sample #1
  concentration at 1 h: 184 ng/mL
[2]; 10 mg kg-1d-1, Compound #11 in the serum, Sample #2
  concentration at 1 h: 59 ng/mL
[2]; 10 mg kg-1d-1, Concentration in the brain, Sample #1
  concentration at 1 h: 206 ng/g
[2]; 10 mg kg-1d-1, Concentration in the brain, Sample #2
  concentration at 1 h: 87 ng/g
[3]
  OGD-induced cleavage of human tau (tau N368): inhibited by compound 11 in a dose-dependent manner
